Measured values published in patent publication US5958945A, “Naphthamide derivatives of 3-beta-amino azabicyclo octane or nonane as neuroleptic agents” (Pierre Fabre Medicament, priority 1995, dated 1999).
Structures can show the parent of a compound that is named as a salt.

What was measured:
[1] = target: D2 receptor; experiment: Binding: displacement of [^3 H] YM-09151-2 (D2 site); conditions: Ligand [^3 H] YM09151-2
Excerpt: (§1) This process for studying specific binding is described Naunyn-Schmiedeberg's Arch. Pharmacol. 329, 333-338, 1985 and Mol. Pharmacol. 21, 301-314, 1982.

[2] = target: 5-HT2 receptor (Rattus norvegicus, UniProt P14842); experiment: Binding: displacement of [^3 H] Ketanserine (5-HT2 site); conditions: compared with the reference substances
5-HT2 receptor, sequence (P14842 whole entry): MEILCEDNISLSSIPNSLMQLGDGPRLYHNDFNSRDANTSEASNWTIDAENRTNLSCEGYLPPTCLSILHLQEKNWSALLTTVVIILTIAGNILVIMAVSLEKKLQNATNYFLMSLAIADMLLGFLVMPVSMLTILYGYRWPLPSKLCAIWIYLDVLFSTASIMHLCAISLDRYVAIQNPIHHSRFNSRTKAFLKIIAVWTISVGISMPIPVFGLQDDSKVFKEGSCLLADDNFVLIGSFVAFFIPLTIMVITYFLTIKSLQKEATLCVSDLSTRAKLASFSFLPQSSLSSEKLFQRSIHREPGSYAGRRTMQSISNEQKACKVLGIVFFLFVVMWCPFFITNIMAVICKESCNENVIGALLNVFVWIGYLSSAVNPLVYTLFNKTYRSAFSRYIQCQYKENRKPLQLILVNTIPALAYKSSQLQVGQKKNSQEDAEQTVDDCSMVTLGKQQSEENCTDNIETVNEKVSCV
Excerpt: as §1

Compound | Ki [1] [nM] | affinity for the 5-HT2 receptor (in words) [2]
CCOc1c(C(=O)N[C@@H]2C[C@H]3CC[C@@H](C2)N3Cc2ccccc2)cc(Br)c2ccccc12 [Example 13, 4-Bromo-1-ethoxy-N-[8-(phenylmethyl)-8-azabicyclo[3.2.1]oct-3-β-yl]-2-naphthalenecarboxamide hydrochloride] | 0.944 | 
COc1c(C(=O)N[C@@H]2C[C@H]3CC[C@@H](C2)N3Cc2ccccc2)cc(Cl)c2ccccc12 [Example 5, 4-Chloro-1-methoxy-N-[8-(phenylmethyl)-8-azabicyclo[3.2.1]oct-3-β-yl)-2-naphthalenecarboxamide hydrochloride] | 0.408 | 
COc1cccc(C(=O)N[C@@H]2C[C@H]3CC[C@@H](C2)N3Cc2ccccc2)c1OC [Tropapride] | 0.106 | little or no 5-HT2 affinity
COc1c(C(=O)N[C@@H]2C[C@H]3CC[C@@H](C2)N3Cc2ccccc2)cc(Br)c2ccccc12 [Example 4, 4-Bromo-1-methoxy-N-[8-(phenylmethyl)-8-azabicyclo[3.2.1]oct-3-β-yl]-2-naphthalenecarboxamide oxalate] | 0.776 | 
COc1c(C(=O)NC2CCN(Cc3ccccc3)CC2)ccc2ccccc12 [Patent EP 539,281 compound] | 3.32 | little or no 5-HT2 affinity
CCN1CCCC1CNC(=O)c1cc(S(N)(=O)=O)ccc1OC (stereo not drawn) [Sulpiride] | 4.63 | 
COc1c(C(=O)N[C@@H]2C[C@H]3CC[C@@H](C2)N3Cc2ccccc2)ccc2ccccc12 [Example 3, 1-Methoxy-N-[8-(phenylmethyl)-8-azabicyclo[3.2.1]oct-3-β-yl]-2-naphthalenecarboxamide] | 0.143 | 
